The numbers were not newly measured in patent publication US8410113B2, “(2R)-1-(3-chloro-2-pyrazinyl)-2-methylpiperazine and salts thereof” (Biovitrum AB (publ), priority 2002, dated 2013), which cites them from elsewhere.

The test system of data set [1] is 5-HT2c receptor. The conditions noted are these: mice expressing the mutated inactive form of the 5-HT2c receptor; cited from earlier work.
The target of data set [2] is T1, 5-HT2c receptor (Mus musculus, UniProt P34968).
T1 construct: mice that express the normal 5-HT2c receptor; host or cells: mice (whole animal)
T1 sequence (P34968 33-459): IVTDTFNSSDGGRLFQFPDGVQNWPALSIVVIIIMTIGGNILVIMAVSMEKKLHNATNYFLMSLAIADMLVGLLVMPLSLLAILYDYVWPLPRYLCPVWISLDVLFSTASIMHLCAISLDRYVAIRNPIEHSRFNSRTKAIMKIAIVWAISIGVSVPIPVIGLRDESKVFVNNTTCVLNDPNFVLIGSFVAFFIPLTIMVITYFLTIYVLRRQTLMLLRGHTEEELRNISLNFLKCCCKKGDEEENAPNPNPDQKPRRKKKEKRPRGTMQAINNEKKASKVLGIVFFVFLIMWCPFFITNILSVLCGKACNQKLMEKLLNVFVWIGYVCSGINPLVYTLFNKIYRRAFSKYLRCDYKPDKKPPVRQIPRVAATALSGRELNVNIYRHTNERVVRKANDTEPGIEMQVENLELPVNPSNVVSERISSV
The conditions noted are these: mice that express the normal 5-HT2c receptor; cited from earlier work.

The conditions of data set [3]: obese subjects, after 2 weeks of treatment; cited from earlier work.

SMILES strings stand for the structures.

As to `Clc1cccc(N2CCNCC2)c1` [mCPP, m-chlorophenylpiperazine], the weight loss result in the data set with 5-HT2c receptor [1] is listed as “lacks activity”; at 5-HT2c receptor [2], “causes weight loss”. Further, the body weight entry in data set [3] is on record as “slight but sustained reduction in body weight”.
